Here are results for eight cell lines from the supplement of paper PMC10307832.

Test in all cases: relative viability (nuclei count vs DMSO), 5 days (fraction); higher = more cells survive
Compound in the experiment “Doramapimod + Foretinib”: Cc1ccc(-n2nc(C(C)(C)C)cc2NC(=O)Nc2ccc(OCCN3CCOCC3)c3ccccc23)cc1 [Doramapimod] + COc1cc2c(Oc3ccc(NC(=O)C4(C(=O)Nc5ccc(F)cc5)CC4)cc3F)ccnc2cc1OCCCN1CCOCC1 [Foretinib] (partner 0.25 µM)
An outline of the steps:
(§1)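 A single step with final 0.05% Triton X-100, 1% formaldehyde and 1 ug/ml Hoechst fixed the cells and stained nuclei 5 days after treatment. Lung cancer cell lines in 1536-well plates had been treated by pin tool the day after seeding with one drug alone or a fixed anchor-drug dose plus five library-drug doses (not always all listed) in √10 steps, and nuclei were counted on 4× images. Relative viability is the ratio of nuclei in treated wells to nuclei in vehicle wells, taken as the median of duplicate plates.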

Compound in the experiment “IPA-3 + Olaparib”: C1=CC=C2C(=C1)C=CC(=C2SSC3=C(C=CC4=CC=CC=C43)O)O [IPA-3] + O=C(c1cc(Cc2n[nH]c(=O)c3ccccc23)ccc1F)N1CCN(C(=O)C2CC2)CC1 [Olaparib] (partner 8 µM)
An outline of the steps:
as §1

Compound in the experiment “RAF265 + Decitabine”: Cn1c(Nc2ccc(C(F)(F)F)cc2)nc2cc(Oc3ccnc(-c4ncc(C(F)(F)F)[nH]4)c3)ccc21 [RAF265] + Nc1ncn([C@H]2C[C@H](O)[C@@H](CO)O2)c(=O)n1 [Decitabine] (partner 2 µM)
The method, boiled down: as §1

Compound in experiment [1]: Cc1ccc(-n2nc(C(C)(C)C)cc2NC(=O)Nc2ccc(OCCN3CCOCC3)c3ccccc23)cc1 [Doramapimod] + CC(=O)c1c(C)c2cnc(Nc3ccc(N4CCNCC4)cn3)nc2n(C2CCCC2)c1=O [Palbociclib] (partner 0.5 µM)
An outline of the steps:
as §1

For the cell line 201T, the relative viability in the experiment with Doramapimod + Foretinib (first compound 0.02 µM) came to 1.01; with Doramapimod + Foretinib (first compound 0.06325 µM), 1.03; in the experiment with Doramapimod + Foretinib (first compound 0.2 µM), 1.1; with Doramapimod + Foretinib (first compound 0.6325 µM) it was 1.41; with Doramapimod + Foretinib (first compound 2 µM), 0.974; with IPA-3 + Olaparib (first compound 0.2 µM), 0.833. The relative viability in the experiment with IPA-3 + Olaparib (first compound 0.6325 µM) was 0.845; with IPA-3 + Olaparib (first compound 2 µM), 0.833; in the experiment with IPA-3 + Olaparib (first compound 6.325 µM), 0.83; in the experiment with IPA-3 + Olaparib (first compound 20 µM), 0.885; with RAF265 + Decitabine (first compound 0.01 µM) it was 0.879; in the experiment with RAF265 + Decitabine (first compound 0.03162 µM), 0.839. Besides, the relative viability with RAF265 + Decitabine (first compound 0.1 µM) came out at 0.864; in the experiment with RAF265 + Decitabine (first compound 0.3162 µM) it was 0.884; in the experiment with RAF265 + Decitabine (first compound 1 µM), 0.858; in experiment [1] (first compound 0.02 µM) it was 0.363; in experiment [1] (first compound 0.06325 µM), 0.351; in experiment [1] (first compound 0.2 µM), 0.321. Moreover, the relative viability in experiment [1] (first compound 0.6325 µM) came out at 0.368; in experiment [1] (first compound 2 µM), 0.336.
For the cell line A549, the relative viability with Doramapimod + Foretinib (first compound 0.02 µM) is 0.91; with Doramapimod + Foretinib (first compound 0.06325 µM), 1; with Doramapimod + Foretinib (first compound 0.2 µM), 0.992; in the experiment with Doramapimod + Foretinib (first compound 0.6325 µM) it was 1.06; with Doramapimod + Foretinib (first compound 2 µM) it was 0.875; with IPA-3 + Olaparib (first compound 0.2 µM) it was 0.375. Besides, the relative viability was 0.312 with IPA-3 + Olaparib (first compound 0.6325 µM); 0.302 with IPA-3 + Olaparib (first compound 2 µM); 0.331 in the experiment with IPA-3 + Olaparib (first compound 6.325 µM); 0.414 with IPA-3 + Olaparib (first compound 20 µM); 0.226 with RAF265 + Decitabine (first compound 0.01 µM); 0.232 with RAF265 + Decitabine (first compound 0.03162 µM). Also, the relative viability in the experiment with RAF265 + Decitabine (first compound 0.1 µM) is 0.259; with RAF265 + Decitabine (first compound 0.3162 µM) it was 0.318; in the experiment with RAF265 + Decitabine (first compound 1 µM) it was 0.155.
As to A-427, the relative viability in the experiment with Doramapimod + Foretinib (first compound 0.02 µM) came to 1.02; in the experiment with Doramapimod + Foretinib (first compound 0.06325 µM), 1.15; with Doramapimod + Foretinib (first compound 0.2 µM) it was 1.12; in the experiment with Doramapimod + Foretinib (first compound 2 µM) it was 0.997; in the experiment with IPA-3 + Olaparib (first compound 0.2 µM), 0.73; in the experiment with IPA-3 + Olaparib (first compound 0.6325 µM), 0.723. The relative viability is 0.697 with IPA-3 + Olaparib (first compound 2 µM); 0.607 with IPA-3 + Olaparib (first compound 6.325 µM); 0.662 with IPA-3 + Olaparib (first compound 20 µM); 0.549 with RAF265 + Decitabine (first compound 0.01 µM); 0.507 in the experiment with RAF265 + Decitabine (first compound 0.03162 µM); 0.514 with RAF265 + Decitabine (first compound 0.1 µM). Also, the relative viability with RAF265 + Decitabine (first compound 0.3162 µM) was 0.37; in the experiment with RAF265 + Decitabine (first compound 1 µM), 0.238; in experiment [1] (first compound 0.02 µM) it was 0.488; in experiment [1] (first compound 0.06325 µM) it was 0.521; in experiment [1] (first compound 0.2 µM), 0.52; in experiment [1] (first compound 2 µM) it was 0.54.
Turning to ABC-1, the relative viability in the experiment with Doramapimod + Foretinib (first compound 0.02 µM) is 1.39; in the experiment with Doramapimod + Foretinib (first compound 0.06325 µM), 1.11; in the experiment with Doramapimod + Foretinib (first compound 0.2 µM), 1.05; with Doramapimod + Foretinib (first compound 0.6325 µM) it was 0.919; with Doramapimod + Foretinib (first compound 2 µM), 0.881; with IPA-3 + Olaparib (first compound 0.2 µM), 0.827. Also, the relative viability in the experiment with IPA-3 + Olaparib (first compound 0.6325 µM) was 0.78; in the experiment with IPA-3 + Olaparib (first compound 2 µM), 0.582; with IPA-3 + Olaparib (first compound 6.325 µM) it was 0.658; with IPA-3 + Olaparib (first compound 20 µM), 0.89; in the experiment with RAF265 + Decitabine (first compound 0.01 µM), 1.16; with RAF265 + Decitabine (first compound 0.03162 µM), 1.04. Further, the relative viability with RAF265 + Decitabine (first compound 0.1 µM) turned out to be 1.07; in the experiment with RAF265 + Decitabine (first compound 0.3162 µM), 1.17; with RAF265 + Decitabine (first compound 1 µM) it was 0.979; in experiment [1] (first compound 0.02 µM) it was 0.642; in experiment [1] (first compound 0.06325 µM), 0.732; in experiment [1] (first compound 0.2 µM), 0.683. For the same cell line, the relative viability was 0.845 in experiment [1] (first compound 0.6325 µM) and 0.817 in experiment [1] (first compound 2 µM).
BEN: the relative viability came to 0.663 with Doramapimod + Foretinib (first compound 0.02 µM); 0.639 in the experiment with Doramapimod + Foretinib (first compound 0.06325 µM); 0.603 in the experiment with Doramapimod + Foretinib (first compound 0.2 µM); 0.469 with Doramapimod + Foretinib (first compound 0.6325 µM); 0.676 in the experiment with Doramapimod + Foretinib (first compound 2 µM); 1.07 in the experiment with IPA-3 + Olaparib (first compound 0.2 µM). Moreover, the relative viability in the experiment with IPA-3 + Olaparib (first compound 0.6325 µM) is 1.15; in the experiment with IPA-3 + Olaparib (first compound 2 µM), 1.08; with IPA-3 + Olaparib (first compound 6.325 µM), 1.06; with IPA-3 + Olaparib (first compound 20 µM) it was 1.23; with RAF265 + Decitabine (first compound 0.01 µM), 0.835; with RAF265 + Decitabine (first compound 0.03162 µM), 0.722. Moreover, the relative viability stood at 0.769 in the experiment with RAF265 + Decitabine (first compound 0.1 µM); 0.737 in the experiment with RAF265 + Decitabine (first compound 0.3162 µM); 0.655 with RAF265 + Decitabine (first compound 1 µM); 0.462 in experiment [1] (first compound 0.02 µM); 0.459 in experiment [1] (first compound 0.06325 µM); 0.504 in experiment [1] (first compound 0.2 µM). Also, the relative viability in experiment [1] (first compound 0.6325 µM) was determined as 0.387; in experiment [1] (first compound 2 µM) it was 0.541.
In the case of CAL-12T, the relative viability with Doramapimod + Foretinib (first compound 0.02 µM) was 1.11; with Doramapimod + Foretinib (first compound 0.06325 µM), 1.15; in the experiment with Doramapimod + Foretinib (first compound 0.2 µM), 1.03; in the experiment with Doramapimod + Foretinib (first compound 0.6325 µM), 1.1; with Doramapimod + Foretinib (first compound 2 µM), 0.983; with IPA-3 + Olaparib (first compound 0.2 µM) it was 0.749. The relative viability is 0.693 in the experiment with IPA-3 + Olaparib (first compound 0.6325 µM); 0.72 with IPA-3 + Olaparib (first compound 2 µM); 0.668 in the experiment with IPA-3 + Olaparib (first compound 6.325 µM); 0.678 with IPA-3 + Olaparib (first compound 20 µM); 0.413 in experiment [1] (first compound 0.02 µM); 0.45 in experiment [1] (first compound 0.06325 µM). Besides, the relative viability in experiment [1] (first compound 0.2 µM) was 0.421; in experiment [1] (first compound 0.6325 µM) it was 0.434; in experiment [1] (first compound 2 µM) it was 0.511.
COR-L23: the relative viability in the experiment with Doramapimod + Foretinib (first compound 0.02 µM) was 0.945; in the experiment with Doramapimod + Foretinib (first compound 0.06325 µM), 0.926; in the experiment with Doramapimod + Foretinib (first compound 0.2 µM), 0.966; with Doramapimod + Foretinib (first compound 0.6325 µM), 1.01; in the experiment with Doramapimod + Foretinib (first compound 2 µM), 0.855; with IPA-3 + Olaparib (first compound 0.2 µM), 0.314. The relative viability with IPA-3 + Olaparib (first compound 0.6325 µM) is 0.34; with IPA-3 + Olaparib (first compound 2 µM) it was 0.406; in the experiment with IPA-3 + Olaparib (first compound 6.325 µM), 0.281; with IPA-3 + Olaparib (first compound 20 µM) it was 0.301; in the experiment with RAF265 + Decitabine (first compound 0.01 µM) it was 0.553; with RAF265 + Decitabine (first compound 0.03162 µM) it was 0.399. Further, the relative viability with RAF265 + Decitabine (first compound 0.1 µM) was 0.436; with RAF265 + Decitabine (first compound 0.3162 µM) it was 0.377; with RAF265 + Decitabine (first compound 1 µM), 0.313; in experiment [1] (first compound 0.02 µM) it was 0.29; in experiment [1] (first compound 0.06325 µM), 0.317; in experiment [1] (first compound 0.2 µM) it was 0.298. Also, the relative viability in experiment [1] (first compound 0.6325 µM) worked out at 0.338; in experiment [1] (first compound 2 µM), 0.283.
As to Calu-6, the relative viability in the experiment with Doramapimod + Foretinib (first compound 0.02 µM) worked out at 0.903; in the experiment with Doramapimod + Foretinib (first compound 0.06325 µM), 0.914; in the experiment with Doramapimod + Foretinib (first compound 0.2 µM), 0.941; with Doramapimod + Foretinib (first compound 0.6325 µM) it was 0.942; with Doramapimod + Foretinib (first compound 2 µM) it was 0.919; with IPA-3 + Olaparib (first compound 0.2 µM), 0.629. For the same cell line, the relative viability with IPA-3 + Olaparib (first compound 0.6325 µM) was found to be 0.503; with IPA-3 + Olaparib (first compound 2 µM), 0.617; in the experiment with IPA-3 + Olaparib (first compound 6.325 µM), 0.596; in the experiment with IPA-3 + Olaparib (first compound 20 µM), 0.426.
